How the values were obtained:
Tubulin = Tubulin assembly induction; type: biochemical; details: […]
MCF-7 = test: Cytotoxicity (GI50) assay, MCF-7; type: cell-based, human; details: Homo sapiens, MCF7, read-out: Cancer cell lines GI50, MCF-7
OVCAR-8 = test: Cytotoxicity (GI50) assay, OVCAR-8; type: cell-based, human; details: Homo sapiens, OVCAR-8, read-out: Cancer cell lines GI50, OVCAR-8
NCI/ADR-RES = test: Cytotoxicity (GI50) assay, NCI/ADR-RES; type: cell-based, human; details: Homo sapiens, NCI/ADR-RES, read-out: Cancer cell lines GI50, NCI/ADR-RES
MDA-MB-435 = test: Cytotoxicity (GI50) assay, MDA-MB-435; type: cell-based, human; details: Homo sapiens, MDA-MB-435, read-out: Cancer cell lines GI50, MDA-MB-435
SNB-75 = test: Cytotoxicity (GI50) assay, SNB-75; type: cell-based, human; details: Homo sapiens, SNB-75, read-out: Cancer cell lines GI50, SNB-75
MES SA = test: Cytotoxicity assay (CellTiter-Glo), MES SA; type: cell-based, human; details: Homo sapiens, MES-SA, 72 h, read-out: Cancer cell lines IC50, MES SA
MES SA DX = test: Cytotoxicity assay (CellTiter-Glo), MES SA DX; type: cell-based, human; details: Homo sapiens, MES-SA, 72 h, read-out: Cancer cell lines IC50, MES SA DX
HEK 293T = test: Cytotoxicity assay (CellTiter-Glo), HEK 293T; type: cell-based; details: Homo sapiens, 72 h, read-out: Cancer cell lines IC50, HEK 293T

| Compound | EC50 (Tubulin) [nM] | GI50 (MCF-7) [nM] | GI50 (OVCAR-8) [nM] | GI50 (NCI/ADR-RES) [nM] | GI50 (MDA-MB-435) [nM] | GI50 (SNB-75) [nM] | IC50 (MES SA) [nM] | IC50 (MES SA DX) [nM] | IC50 (HEK 293T) [nM] |
| --- | --- | --- | --- | --- | --- | --- | --- | --- | --- |
| C/C(=C\c1csc(CCO)n1)[C@@H]1C[C@@H]2N(CCO)[C@]2(C)CCC[C@H](C)[C@H](O)[C@@H](C)C(=O)C(C)(C)[C@@H](O)CC(=O)O1 (stereo partly drawn) [compound 19, (1S,3S,7S,10R,11S,12S,16R)-7,11-Dihydroxy-17-(2-hydroxyethyl)-3-{(1E)-1-[2-(2-hydroxyethyl)-1,3-thiazol-4-yl]prop-1-en-2-yl}-8,8,10,12,16-pentamethyl-4-oxa-17-azabicyclo-[14.1.0]heptadecane-5,9-dione] | > 60000 | 40 | 38 | 4800 | 12 | 36 | 4.98 | > 1000 | 3.39 |
| C/C(=C\c1csc(-c2nc(C)cs2)n1)[C@@H]1C[C@@H]2N(CCO)[C@]2(C)CCC[C@H](C)[C@H](O)[C@@H](C)C(=O)C(C)(C)[C@@H](O)CC(=O)O1 (stereo partly drawn) [compound 22, (1S,3S,7S,10R,11S,12S,16R)-7,11-Dihydroxy-17-(2-hydroxyethyl)-8,8,10,12,16-pentamethyl-3-[(1E)-1-(4′-methyl-2,2′-bi-1,3-thiazol-4-yl)prop-1-en-2-yl]-4-oxa-17-azabicyclo[14.1.0]-heptadecane-5,9-dione] | 17000 | 7.5 | 18 | 240 | 4 | 18 | 1.86 | 392 | 1.55 |
| C/C(=C\c1ccn(Cn2cccn2)n1)[C@@H]1C[C@@H]2N(CCO)[C@]2(C)CCC[C@H](C)[C@H](O)[C@@H](C)C(=O)C(C)(C)[C@@H](O)CC(=O)O1 (stereo partly drawn) [compound 25, (1S,3S,7S,10R,11S,12S,16R)-7,11-Dihydroxy-17-(2-hydroxyethyl)-8,8,10,12,16-pentamethyl-3-{(1E)-1-[1-(1H-pyrazol-1-ylmethyl)-1H-pyrazol-3-yl]prop-1-en-2-yl}-4-oxa-17-azabicyclo-[14.1.0]heptadecane-5,9-dione] | > 60000 | 32 | 130 | > 5000 | 19 | 24 | 10.3 | > 2500 | 27.7 |
| CC(=O)OCCN1[C@H]2C[C@@H](/C(C)=C/c3ccn(Cn4cccn4)n3)OC(=O)C[C@H](O)C(C)(C)C(=O)[C@H](C)[C@@H](O)[C@@H](C)CCC[C@]21C (stereo partly drawn) [compound 26, 2-[(1S,3S,7S,10R,11S,12S,16R)-7,11-Dihydroxy-8,8,10,12,16-pentamethyl-5,9-dioxo-3-{(1E)-1-[1-(1H-pyrazol-1-ylmethyl)-1H-pyrazol-3-yl]prop-1-en-2-yl}-4-oxa-17-azabicyclo[14.1.0]heptadec-17-yl]ethyl acetate] | 40000 | 38 | 38 | 2700 | 5.5 | 50 | 5.9 | > 400 | 1.72 |
| C/C(=C\c1cnon1)[C@@H]1C[C@@H]2N(CCO)[C@]2(C)CCC[C@H](C)[C@H](O)[C@@H](C)C(=O)C(C)(C)[C@@H](O)CC(=O)O1 (stereo partly drawn) [compound 27, (1S,3S,7S,10R,11S,12S,16R)-7,11-Dihydroxy-17-(2-hydroxyethyl)-8,8,10,12,16-pentamethyl-3-[(1E)-1-(1,2,5-oxadiazol-3-yl)prop-1-en-2-yl]-4-oxa-17-azabicyclo[14.1.0]heptadecane-5,9-dione] | > 60000 | 140 | 580 | > 5000 | 120 | 450 | 38.9 | ≥ 2500 | 11.7 |
| C/C(=C\c1cnsn1)[C@@H]1C[C@@H]2N(CCO)[C@]2(C)CCC[C@H](C)[C@H](O)[C@@H](C)C(=O)C(C)(C)[C@@H](O)CC(=O)O1 (stereo partly drawn) [compound 28, (1S,3S,7S,10R,11S,12S,16R)-7,11-Dihydroxy-17-(2-hydroxyethyl)-8,8,10,12,16-pentamethyl-3-[(1E)-1-(1,2,5-thiadiazol-3-yl)prop-1-en-2-yl]-4-oxa-17-azabicyclo[14.1.0]heptadecane-5,9-dione] | 39000 | 4.5 | 9 | 680 | 3 | 8 | 4.58 | 264 | 1.93 |
| C/C(=C\c1cc(C)no1)[C@@H]1C[C@@H]2N(CCO)[C@]2(C)CCC[C@H](C)[C@H](O)[C@@H](C)C(=O)C(C)(C)[C@@H](O)CC(=O)O1 (stereo partly drawn) [compound 29, (1S,3S,7S,10R,11S,12S,16R)-7,11-Dihydroxy-17-(2-hydroxyethyl)-8,8,10,12,16-pentamethyl-3-[(1E)-1-(3-methyl-1,2-oxazol-5-yl)prop-1-en-2-yl]-4-oxa-17-azabicyclo[14.1.0]heptadecane-5,9-dione] | 45000 | 9.5 | 27 | 390 | 17 | 34 | 6.54 | > 70 | 1.67 |
| C/C(=C\c1snnc1C)[C@@H]1C[C@@H]2N(CCO)[C@]2(C)CCC[C@H](C)[C@H](O)[C@@H](C)C(=O)C(C)(C)[C@@H](O)CC(=O)O1 (stereo partly drawn) [compound 30, (1S,3S,7S,10R,11S,12S,16R)-7,11-Dihydroxy-17-(2-hydroxyethyl)-8,8,10,12,16-pentamethyl-3-[(1E)-1-(4-methyl-1,2,3-thiadiazol-5-yl)prop-1-en-2-yl]-4-oxa-17-azabicyclo[14.1.0]heptadecane-5,9-dione] | > 60000 | 58 | 210 | 2800 | 48 | 100 | 37.8 | > 2500 | 64 |
| C/C(=C\c1cc(-c2ccc(F)cc2)on1)[C@@H]1C[C@@H]2N(CCO)[C@]2(C)CCC[C@H](C)[C@H](O)[C@@H](C)C(=O)C(C)(C)[C@@H](O)CC(=O)O1 (stereo partly drawn) [compound 31, (1S,3S,7S,10R,11S,12S,16R)-3-{(1E)-1-[5-(4-Fluorophenyl)-1,2-oxazol-3-yl]prop-1-en-2-yl}-7,11-dihydroxy-17-(2-hydroxyethyl)-8,8,10,12,16-pentamethyl-4-oxa-17-azabicyclo[14.1.0]heptadecane-5,9-dione] | 19000 | 13 | 70 | 50 | 11 | 65 | 1.41 | 17.1 | 0.32 |
| C/C(=C\c1csc(-c2nc(C)cs2)n1)[C@@H]1C[C@@H]2N[C@]2(C)CCC[C@H](C)[C@H](O)[C@@H](C)C(=O)C(C)(C)[C@@H](O)CC(=O)O1 [compound 32, (1S,3S,7S,10R,11S,12S,16R)-7,11-Dihydroxy-8,8,10,12,16-pentamethyl-3-[(1E)-1-(4′-methyl-2,2′-bi-1,3-thiazol-4-yl)prop-1-en-2-yl]-4-oxa-17-azabicyclo[14.1.0]heptadecane-5,9-dione] | 43000 | 25 | 58 | 170 | 11 | 68 | 25.8 | > 400 | 63.2 |

— patent US20210238187A1, “AZIRIDINE CONTAINING EPOTHILONE ANALOGS, METHODS OF SYNTHESIS, METHODS OF TREATMENT, AND DRUG CONJUGATES” (WILLIAM MARSH RICE UNIVERSITY, priority 2017, published 2021)
